Data as given in patent US7556825B2, “Method for promoting hair growth” (Anticancer, Inc., priority 1993, dated 2009).

Key:
[1] = test system: Fischer or Sprague-Dawley rats; conditions: cited from earlier work; for alopecia in young rats after treatment: starting from the head, around one to two weeks after treatment
patients = conditions: cited from earlier work
Sprague-Dawley rats = conditions: ip chemotherapy
Method: 8-day old Sprague-Dawley rats are treated topically with liposome compositions as described in Example 1 containing a compound such as p21 to be screened for its effect on chemotherapy-induced alopecia. The liposome composition is provided at a concentration of 100 μg/ml in 1 mM β-mercaptoethanol, for 2 days. […] The rats are then treated with cyclophosphamide, CTX (35 mg/kg, ip once) with the combination of CTX (25 mg/kg)+doxorubicin, DOX (2.5 mg/kg), ip once per day for 3 days, respectively. One rat pup without chemotherapy was used as control.

hair follicles [2] = conditions: mouse, in vivo
Method: Liposomes were prepared essentially as described in Example 1. […] Thereafter, 0.5 ml of either calcein (10 mg/ml) or melanin (10 mg/ml) solution, respectively, were added to sonicated PC liposome composition, and further sonicated for 6 minutes, followed by freeze-thawing three times. […] A sample of about 250 microliters of the liposome composition entrapping calcein or melanin was applied directly to the dorsal skin on the mouse in an area of approximately 1.5 cm^2 using a sutured band-aid patch to immobilize the liposome composition onto the skin and to prevent evaporation. The liposome composition was re-applied every 1 hour for 6 hours, with the last application remaining for a total of 24 hours at which time the skin samples were taken by punch biopsy for analysis. For time course experiments, one mouse was used for each time period, with 6 punch biopsies taken from each mouse, at 0.5, 1, 2, 4, 6, 16 and 24 hours. […] Skin samples containing calcein were also analyzed by spectrofluorimetry to determine the effective concentration of a delivered beneficial compound into a selected tissue. […] The sonicated sample was then centrifuged for 10 minutes in a microcentrifuge at 14,000×g, and the resulting supernatant was measured by spectrofluorimetry at an excitation wavelength of 496 nm and an emission wavelength of 517 nm for detecting calcein. The concentration of calcein delivered into the skin tissue was determined from the spectrofluorometric readings by comparison to a standard curve. Skin samples containing melanin were also analyzed by is spectrophotometry to determine the effective concentration of a delivered beneficial compound into a selected tissue. […] The sonicated sample was then centrifuged for 10 minutes in a microcentrifuge at 14,000×g, and the resulting supernatant was measured by spectrophotometry at an absorption wavelength of 300 nm for detecting absorption by melanin. The concentration of melanin delivered into the skin tissue was determined from the spectrophotometric readings by comparison to a standard curve.

hair follicles [3] = assay: Liposome-mediated delivery of calcein dye to hair follicles in mouse skin histoculture; format: cell-based
Method: For the histoculture of skin, pieces of shaved outbred white-haired-mouse or nude-mouse skin, approximately 2×5×2 mm, were harvested under a dissection microscope and then histocultured on collagen-gel supported sponge as described by Li et al., Proc. Natl. Acad. Sci. USA 88:1908-1912, 1991. Histoculture was continued for about 24 hours prior to contacting the skin histoculture with the liposome preparation.
Liposomes were prepared by sonication of about 15 mg or 25 mg, preferably 25 mg, phosphatidylcholine (PC) emulsion in phosphate buffered saline (PBS) containing about 20 mg/ml of the fluorescent dye calcein. Liposomes were also prepared by entrapping NBD-phosphatidylcholine fluorescent dye using an emulsion with about 20 mg/ml of the NBD formulation. Liposomes were separated from the non-entrapped dye by gel-filtration on a Sepharose 4B column diluted with phosphate buffered saline. The amount of entrapped dye was measured spectrofluorometrically. Two types of PC were used: egg PC (EPC) and dipalmitoyl PC (DPPC). Due to their phase transition temperatures, liposomes made of DPPC are in a gel phase at about 37° C. while liposomes prepared from EPC are in a liquid-crystalline state.
Samples of the mouse skin histocultures were incubated for about 20 minutes with each of the liposomes and with a solution of “free” calcein dye at the same concentrations used in the liposome preparation. After the tissue samples were thoroughly washed with culture medium free of liposomes to remove excess liposome composition, the specimens were analyzed with a BioRad MRC 600 laser confocal microscope with a BHS filter block, which excites the tissue at 488 nm and passes the light emitted at 520 nm. These parameters are close to the excitation and emission maxima reported for calcein, Haugland, (Ed.) Molecular probes. Handbook of Fluorescent Probes and Research Chemicals, Molecular Probes, Inc., Eugene, (1989-1991 and 1992-1993). There is no autofluorescence of tissue when these emission and excitation wavelengths are used. […]

hair follicles [4] = assay: In vivo topical liposome-melanin coloring of regrowing hair in depilated white-haired mice; parameters: species or system mouse
Description: 3-4 week old white-haired mice were depilated by a mixture of bees wax and rosin gum. Topical application of liposome-melanin as described herein was started on day 6 after depilation. […] The skin surface was then washed with an excess of water and wipe-dried with a gauze pad. The out-growing hair was micro-photographed. The same concentration of naked melanin solution as entrapped into liposomes was used as the control. In another experiment, 3-4 week old white-haired mice were depilated by a mixture of bees wax and rosin gum. Topical application of liposome-melanin composition was started on day 10 after depilation. The melanin used in this experiment was from Biosource, SF, CA #MM-8A-1. The liposome-melanin composition was applied on the skin of mice twice per day for 3 days. The treated skin surface was then washed with an excess of water and wipe-dried with a gauze pad. The mice were then photographed. The same concentration of naked melanin solution as entrapped into liposomes was used as the control.

hair follicles [5] = assay: Liposome-mediated delivery of melanin to hair follicles in white-haired mouse skin histoculture; format: cell-based
Method: To that end, liposomes were prepared by sonication. About 20 mg of egg phosphatidycholine was rotary evaporated with a vacuum drier from a chloroform solution to form a thin film on the walls of a 5 ml round-bottomed flask for about 1 hour. The dried thin film phospholipid was suspended in about 0.5 ml phosphate buffered saline (pH 7.4) on a vortex mixer and then sonicated with a Branson probe-type sonicator fitted with a microtip at power level 3 for about 8 minutes. Then 0.5 ml of a solution of melanin (10 mg/ml) was entrapped with the above suspension by sonication for about an additional 4 minutes. Liposomes were separated from the non-entrapped melanin by gel-filtration on a Sepharose 4B column equilibrated with phosphate buffered saline.
Pieces of outbred white-haired mouse skin derived from 1-2 weeks-old animals (about 2×5×2 mm each) were harvested under a dissection microscope. […] Liposome interaction with the skin was initiated after about 24 hours of histoculture. Mouse skin histocultures were incubated for about 12 hours with liposomes. […]
The skin histocultures were counter-stained with the dye 2′,7′-bis(2-carboxyethyl)-5 which is activated to fluorescence by nonspecific esterases present only in living cells. After the tissues were thoroughly washed, the specimens were analyzed with a Nikon fluorescence microscope equipped with a fluorescein cube. […]

## C=C1/C(=C\C=C2/CCC[C@]3(C)[C@@H]([C@H](C)CCCC(C)(C)O)CC[C@@H]23)C[C@@H](O)C[C@@H]1O [1,25-dihydroxyvitamin D3]
[1]; topical
  prevention of alopecia induced by cytoxan or etoposide: prevents alopecia induced by cytoxan or etoposide

## O=P1(N(CCCl)CCCl)NCCCO1 (centres unmarked) [CTX, cyclophosphamide]
patients; intravenous
  patients with severe alopecia: 75-90%
[1]
  alopecia in young rats after treatment: develop alopecia
Sprague-Dawley rats
  other toxic effects in rat pups: No other toxic effects were noted
Sprague-Dawley rats; noted at day-7
  alopecia in rat pups: alopecia can be seen

## Nc1ccn([C@@H]2O[C@H](CO)[C@@H](O)[C@@H]2O)c(=O)n1 [ara-C]
[1]
  alopecia in young rats after treatment: develop alopecia

## COc1cccc2c1C(=O)c1c(O)c3c(c(O)c1C2=O)C[C@@](O)(C(=O)CO)C[C@@H]3O[C@H]1C[C@H](N)[C@H](O)[C@H](C)O1 [doxorubicin]
patients; human, in vivo
  hair loss in patients: 85-100%
[1]
  alopecia in young rats after treatment: develop alopecia

## O=C(O)CN(CC(=O)O)Cc1cc2c(cc1O)Oc1cc(O)c(CN(CC(=O)O)CC(=O)O)cc1C21OC(=O)c2ccccc21 [free calcein, calcein]
Hair follicles [2]
  delivery of calcein into hair follicles and shafts (fluorescent microscopy): trapped in the stratum corneum and did not enter the hair shafts or follicles
Hair follicles [2]; outbred white-haired, 24 h
  calcein delivered in the hair follicles: about 1.4 ng/mm^2
Hair follicles [3]; histoculture topically treated 48 hours
  delivery of calcein into hair follicles by topical use: rarely penetrated through the skin to stain the hair follicles
Hair follicles [3]; histoculture treated 48 hours, propidium iodide counterstain
  delivery of green fluorescent dye to hair follicles and shafts: very weak staining of a few hair follicles
Hair follicles [3]; skin histoculture incubated about 20 minutes
  delivery of fluorescent dye to hair follicles (confocal fluorescence microscopy): relatively low fluorescence with no preferential staining of any particular skin structure

## melanin [naked melanin]
Hair follicles [2]
  melanin delivered to the hair follicles: less than 2.0 ug/mm^2
Hair follicles [4]; topical once per day for 4 days from day 6 after depilation
  coloring of out-growing hair: No hair coloring is observed
Hair follicles [4]; topical twice per day for 3 days from day 10 after depilation
  coloring of regrown hair: regrown hair remained white
Hair follicles [5]
  localization of melanin in hair follicles and hair shafts (H&E paraffin section): no “free” melanin can be observed either in hair shafts or the hair follicular cells
